Laboratory results reported in PubChem BioAssay AID1508612.

Assay: passive permeability, PAMPA, ADME assay (AID 1508612)
Conditions: pH 7.4, 30.0 min, 50.0 µM

SMILES	Papp
Cc1ccc(S(=O)(=O)Nc2cnccc2C(=O)Nc2nc(-c3cccnc3)cs2)cc1	104 ×10⁻⁶ cm/s
CC1=C(C(=O)Nc2nncs2)C2(CCCC2)N=C(Nc2nc3ccccc3o2)N1	< 1 ×10⁻⁶ cm/s
CC(C)(C)C1CCc2c(sc(NC(=O)c3ccncc3)c2C(N)=O)C1 (centres undefined)	581 ×10⁻⁶ cm/s
Cn1cnc2c(F)c(Nc3ccc(Br)cc3Cl)c(C(=O)NOCCO)cc21	131 ×10⁻⁶ cm/s
COC(=O)c1cc(Cl)ccc1NC(=O)CSc1ncc(S(=O)(=O)c2ccc(Br)cc2)c(=O)[nH]1	68.7 ×10⁻⁶ cm/s
Cc1cccc(C(=O)N2CCc3cc(-c4nc(NC(=O)Cc5ccc6c(c5)OCO6)sc4C)ccc32)c1	59 ×10⁻⁶ cm/s
CC(=O)N1CCc2cc(S(=O)(=O)NCCC3=CCCCC3)ccc21	444 ×10⁻⁶ cm/s
O=C1CCCC2=C1C(c1ccccc1Cl)N=C(Nc1nc3ccccc3o1)N2 (centres undefined)	> 1000 ×10⁻⁶ cm/s
CN1CCN(C2=Nc3cc(Cl)ccc3Nc3ccccc32)CC1	> 1000 ×10⁻⁶ cm/s
CCOC(=O)c1ccnc(CNCC(=O)N(CC)CCN(C)C)c1	40.4 ×10⁻⁶ cm/s
COc1ccc(-c2ccc3c(N4CCOC[C@H]4C)nc(N4CCOC[C@H]4C)nc3n2)cc1CO	182 ×10⁻⁶ cm/s
Cn1c(C(=O)NCCc2ccccn2)nc2nc(-c3ccccc3)c(Cl)cc21	> 1000 ×10⁻⁶ cm/s
Cc1ccc(S(=O)(=O)Nc2ccccc2C(=O)Nc2nc(-c3ccc(Cl)cc3)cs2)cc1	16.6 ×10⁻⁶ cm/s
C[C@@]1(O)[C@H](O)[C@@H](CO)O[C@H]1n1ccc(N)nc1=O	9.97 ×10⁻⁶ cm/s
CNC(=O)c1ccc(C)c(-n2c(C)cc(OCc3ccc(F)cc3F)c(Br)c2=O)c1	695 ×10⁻⁶ cm/s
Clc1ccc(C2=Nn3c(nnc3-c3ccncc3)SC2)cc1	372 ×10⁻⁶ cm/s
NC1(c2ccccc2Cl)CCCCC1=O (centres undefined)	62 ×10⁻⁶ cm/s
Nc1nc2c(s1)C(c1cccc(Cl)c1Cl)CC(=O)N2 (centres undefined)	505 ×10⁻⁶ cm/s
O=C(CNC(=O)c1cnccn1)NC1CCCc2c1[nH]c1ccc(Cl)cc21 (centres undefined)	> 1000 ×10⁻⁶ cm/s
CC(C)c1nc2oc3c(NCCN(C)C)ncnc3c2c2c1COC(C)(C)C2	> 1000 ×10⁻⁶ cm/s
COCCNC(=O)c1ccc(-c2ccc(N3CCCCC3)nc2)cc1	> 1000 ×10⁻⁶ cm/s
COc1ccc(O)c(CNc2ccc(S(=O)(=O)Nc3nccs3)cc2)c1	3.74 ×10⁻⁶ cm/s

SMILES	Papp
NC(=O)C1CCN(c2ncc(-c3ccc4c(c3)OC(F)(F)O4)s2)CC1	438 ×10⁻⁶ cm/s
COC(=O)CNC(=O)c1nc(-c2ccc([S+](C)(=O)[O-])cc2)c2cnccn12	9.67 ×10⁻⁶ cm/s
CCOc1ccc(CCNC(=O)c2cc3cnccc3n2Cc2cccc(C)n2)cc1OCC	7.02 ×10⁻⁶ cm/s
CNS(=O)(=O)c1cc(-c2nn3c(C)nnc3c3ccccc23)ccc1C	146 ×10⁻⁶ cm/s
Fc1cc(Nc2nc(-c3ccncc3)nc3ccccc23)ccc1N1CCCCC1	> 1000 ×10⁻⁶ cm/s
Cc1cc(-c2nnc3n2CCCCC3)c(C)n1-c1ccc(Cl)cc1	> 1000 ×10⁻⁶ cm/s
CN(C)c1ccccc1-c1csc(N2CCC(C(N)=O)CC2)n1	331 ×10⁻⁶ cm/s
CN(C)c1cccc(-c2nc(N3CCC(C(N)=O)CC3)ncc2F)c1	780 ×10⁻⁶ cm/s
CCN(CC)CCCNC(=O)c1oc2c(c1C)-c1nn(Cc3ccc(Cl)cc3)cc1CC2	> 1000 ×10⁻⁶ cm/s
O=C(Nc1nc(-c2ccccc2)cs1)c1ccncc1NS(=O)(=O)c1ccc(C(F)(F)F)cc1	316 ×10⁻⁶ cm/s
COc1ccc(-c2ccc3nc(-c4ccccc4C)oc3c2)c(OC)c1OC	< 1 ×10⁻⁶ cm/s
O=C(c1cnc(N2CCCCC2)c2ccccc12)N1CCN(c2ccccn2)CC1	> 1000 ×10⁻⁶ cm/s
O=C(Nc1nc(-c2ccc(F)cc2)cs1)c1ccncc1NS(=O)(=O)c1ccccc1Cl	> 1000 ×10⁻⁶ cm/s
O=C1Nc2ccccc2/C1=C\c1ccc(O)c(Cl)c1	608 ×10⁻⁶ cm/s
COc1ccc(-c2nc3c(c(SCC(=O)Nc4ccc(C(=O)O)cc4)n2)Cc2ccccc2O3)cc1	1.18 ×10⁻⁶ cm/s
COc1ccc(-c2[nH]nc3ncc(-c4ccc(CO)cc4)nc23)cc1F	353 ×10⁻⁶ cm/s
Cc1ccc(-c2csc(Nc3ccc(S(=O)(=O)Nc4nccs4)cc3)n2)cc1C	22 ×10⁻⁶ cm/s
CN(C)C(=O)NC1CCC(CCN2CCN(c3cccc(Cl)c3Cl)CC2)CC1 (centres undefined)	514 ×10⁻⁶ cm/s
COc1cccc(C(=O)NCCSc2c(-c3ccc(F)cc3)[nH]c3ccccc23)c1OC	37 ×10⁻⁶ cm/s
O=C(NCCc1cnc[nH]1)c1ccc(-c2ncc3cnc(-c4cccc(F)c4)cn23)cc1	< 1 ×10⁻⁶ cm/s
COc1ccc(CNc2ccc(S(=O)(=O)Nc3nccs3)cc2)c(O)c1	< 1 ×10⁻⁶ cm/s
O=C(CNC12CC3CC(CC(C3)C1)C2)c1ccc(Cl)cc1	635 ×10⁻⁶ cm/s

SMILES	Papp
O=c1cc(N2CCOCC2)oc2c1ccc1ccccc12	294 ×10⁻⁶ cm/s
N#Cc1cnc(NS(=O)(=O)c2ccc(NC(=O)Cc3ccc(F)c(Cl)c3)cc2)s1	< 1 ×10⁻⁶ cm/s
Fc1ccc(-c2ccc(Nc3nc(-c4ccncc4)nc4ccccc34)cc2F)c(F)c1	19.5 ×10⁻⁶ cm/s
Oc1ccc(CNc2ccccc2F)c2cccnc12	34 ×10⁻⁶ cm/s
O=C(NCc1cccc(C(F)(F)F)c1)c1ccc(CN2CCCCC2)cc1	> 1000 ×10⁻⁶ cm/s
Cc1cc(S(=O)(=O)Nc2cnccc2C(=O)Nc2nc(-c3ccccc3)cs2)c(C)o1	768 ×10⁻⁶ cm/s
Cc1cc(N=Nc2ccc(S(=O)(=O)Nc3ccccn3)cc2)c(N)cc1O	29.4 ×10⁻⁶ cm/s
CCc1cccc(C)c1Nc1c(-c2ccc(N(C)C)cc2)nc2ncccn12	> 1000 ×10⁻⁶ cm/s
CC(C)(C)OC(=O)N[C@@H](Cc1ccc(OS(=O)(=O)c2cccc3cnccc23)cc1)C(=O)N1CCCN(C(=O)OC(C)(C)C)CC1	818 ×10⁻⁶ cm/s
Oc1ccc2[nH]cc(CCCCN3CC=C(c4ccccc4)CC3)c2c1	> 1000 ×10⁻⁶ cm/s
Fc1cccc(CNc2nc(-c3ccccc3C(F)(F)F)nc3ccccc23)c1	315 ×10⁻⁶ cm/s
Cc1cc(C)nc(NC(=S)N2CCN(c3cccc([N+](=O)[O-])c3)CC2)c1	> 1000 ×10⁻⁶ cm/s
O=C(Nc1ccccc1-c1cn2c(CN3CCNCC3)csc2n1)c1cnc2ccccc2n1	239 ×10⁻⁶ cm/s
Cc1ccccc1S(=O)(=O)N1CCCC(CCC(=O)NCCN(C)C2CCCCC2)C1 (centres undefined)	> 1000 ×10⁻⁶ cm/s
Cc1sc(NC(=O)Cc2ccc3c(c2)OCO3)nc1-c1ccc2c(c1)CCN2C(=O)c1ccccc1F	1.4 ×10⁻⁶ cm/s
Oc1ccc(CNc2cccc(F)c2)c2cccnc12	< 1 ×10⁻⁶ cm/s
NC(=O)C1CCN(c2nc(-c3cccc(N)c3)cs2)CC1	86.8 ×10⁻⁶ cm/s
Cc1cc(Nc2nc(-c3ccncc3)nc3ccccc23)n[nH]1	721 ×10⁻⁶ cm/s
O=C(NCC1Cn2cccc2CN1Cc1cccnc1)Nc1ccccc1 (centres undefined)	< 1 ×10⁻⁶ cm/s
CCCS(=O)(=O)c1nc(NC2CC2)cc(-c2ccc3c(ccn3C3CC(C)(C)NC(C)(C)C3)c2)n1	107 ×10⁻⁶ cm/s
COc1ccc(-c2cnc(N3CCC(C(N)=O)CC3)s2)cc1OC	336 ×10⁻⁶ cm/s
COC(=O)c1ccc2c(c1)nc1n2[C@@H](CNC(C)=O)COC1	4.45 ×10⁻⁶ cm/s

SMILES	Papp
CCOc1ccc(NC(=O)c2cccc(-n3cccc3)c2)cc1S(=O)(=O)N1CCOCC1	80.4 ×10⁻⁶ cm/s
CC1Oc2cc3c(-c4c(O)cc(O)c5c(O)c6c(cc45)OC(C)C(C)C6=O)c(O)cc(O)c3c(O)c2C(=O)C1C (centres undefined)	8.5 ×10⁻⁶ cm/s
O=c1[nH]cnc2nc[nH]c12	< 1 ×10⁻⁶ cm/s
COc1ccc(C(=O)Nc2nc(-c3ccccc3)cs2)c(OC)c1	> 1000 ×10⁻⁶ cm/s
CCCCOc1ccc(CC(=O)NO)cc1	133 ×10⁻⁶ cm/s
O=C(Nc1ccc([S+](=O)([O-])Nc2nccs2)cc1)c1ccn[nH]1	< 1 ×10⁻⁶ cm/s
COc1ccc(-c2csc(CCn3nc(C)c4c(C(F)(F)F)cc(=O)[nH]c43)n2)cc1	825 ×10⁻⁶ cm/s
Clc1ccc(-c2nnc(C3CCCCC3)o2)cc1	> 1000 ×10⁻⁶ cm/s
COc1ccc(-n2nc(C3CCCN([S+](=O)([O-])c4cccc(C(F)(F)F)c4)C3)[nH]c2=O)cc1 (centres undefined)	569 ×10⁻⁶ cm/s
O=C(O)CNC(=O)c1c(O)c2ccccc2n(Cc2ccccc2)c1=O	14.6 ×10⁻⁶ cm/s
Nc1nc2c(s1)C(c1ccccc1)CC(=O)N2 (centres undefined)	19.3 ×10⁻⁶ cm/s
CCOc1ccc(CCNC(=O)c2cccc(C(=O)c3ccccc3)c2)cc1OCC	> 1000 ×10⁻⁶ cm/s
NC(=O)C1CCN(c2ncc(-c3cccc(F)c3)s2)CC1	896 ×10⁻⁶ cm/s
Fc1ccc(Cl)cc1-c1nc(Nc2ccncc2)c2nccnc2n1	> 1000 ×10⁻⁶ cm/s
Cc1noc(-c2cn(C3CCN(C(=O)c4ccc(OC(F)(F)F)cc4)CC3)nn2)n1	10.2 ×10⁻⁶ cm/s
CC(C)n1cc(-c2ccc(Oc3ccccc3)cc2)c2c(N)ncnc21	> 1000 ×10⁻⁶ cm/s
CCc1ccc(NC(=O)CSC2=Nc3ccccc3C3=NC(CC(=O)NCc4ccc5c(c4)OCO5)C(=O)N23)cc1 (centres undefined)	< 1 ×10⁻⁶ cm/s
CN(Cc1ccccc1)C(=O)C1CCN(Cc2cccc3ccccc23)CC1	> 1000 ×10⁻⁶ cm/s
CCCC1=Nc2cc(C(=O)NC3CCCC3)ccc2Sc2ccc(C)cc21	662 ×10⁻⁶ cm/s
NC(=O)C1CCN(c2nc(-c3ccccc3F)cs2)CC1	558 ×10⁻⁶ cm/s
Cc1ccc(-c2nn(C(C)(C)C)c3ncnc(N)c23)cc1	825 ×10⁻⁶ cm/s
NC(=O)C1CCN(c2ncc(-c3ccc4c(c3)OCCO4)s2)CC1	710 ×10⁻⁶ cm/s

SMILES	Papp
CCOc1ccc(CCNC(=O)c2cc3ccncc3n2Cc2cccc(C)c2)cc1OCC	20.6 ×10⁻⁶ cm/s
c1ccc(-c2ccc(CNc3nc(-c4ccccn4)nnc3-c3ccccc3)cc2)cc1	> 1000 ×10⁻⁶ cm/s
CC(=O)Nc1cccc(-c2csc(Nc3cc(C)ccn3)n2)c1	> 1000 ×10⁻⁶ cm/s
CCc1ccc(NC(=O)[C@H](Cc2c[nH]c3ccccc23)NC(=O)[C@@H]2Cc3ccccc3CN2)cc1	111 ×10⁻⁶ cm/s
Cc1cc(-c2nnc3n2CCCCC3)c(C)n1-c1ccc(F)cc1	314 ×10⁻⁶ cm/s
CCCN(C(=O)c1sc2nc3n(c(=O)c2c1C)CCCC3)c1ccccc1C	> 1000 ×10⁻⁶ cm/s
Nc1nc2c(s1)C(c1c(Cl)cccc1Cl)CC(=O)N2 (centres undefined)	5.54 ×10⁻⁶ cm/s
CCOc1ccc(/C=C/c2nc3ccccc3n2S(=O)(=O)c2ccc(Br)cc2)cc1	926 ×10⁻⁶ cm/s
NC(=O)C1CCN(c2nc(-c3cccc(Br)c3)cs2)CC1	788 ×10⁻⁶ cm/s
O=S(=O)(Nc1nccs1)c1ccc(NCc2ccccc2)cc1	320 ×10⁻⁶ cm/s
CC(C)Oc1cccc(-c2csc(N3CCC(C(N)=O)CC3)n2)c1	> 1000 ×10⁻⁶ cm/s
Cn1nnnc1SCCCNCc1cccc(OCc2ccccc2Cl)c1	> 1000 ×10⁻⁶ cm/s
NC(=O)C1CCN(c2nc(-c3cccs3)cs2)CC1	195 ×10⁻⁶ cm/s
O=C1Nc2ccccc2/C1=C/c1cc(Cl)c(O)c(Cl)c1	49 ×10⁻⁶ cm/s
COCCNC(=O)[C@H]1C[C@H](Oc2ccccc2)CN1Cc1ccc2[nH]ccc2c1	961 ×10⁻⁶ cm/s
N#Cc1ccc(-c2csc(N3CCC(C(N)=O)CC3)n2)cc1	406 ×10⁻⁶ cm/s
Cc1ccc(/C=C/c2nc3ccccc3n2S(=O)(=O)c2cccc(Cl)c2)cc1	11.5 ×10⁻⁶ cm/s
Cc1noc(C)c1C(=O)N1CCC2(CC1)CCN(C(c1ccccc1)c1ccccc1)CC2	> 1000 ×10⁻⁶ cm/s
NC(=O)C1CCN(c2nc(-c3cccc4ccccc34)cs2)CC1	641 ×10⁻⁶ cm/s
CC(=O)N1CCN(c2nc(-c3ccc(Br)cc3)cs2)CC1	995 ×10⁻⁶ cm/s
CCC(CC)c1cc([C@H]2CN3CC[C@H]2C[C@@H]3CNC(=O)COc2ccccc2)nc(-c2ccncc2)n1	790 ×10⁻⁶ cm/s
